Experimental data: ChEMBL document CHEMBL1275273, “QSAR prediction of D2 receptor antagonistic activity of 6-methoxy benzamides” (Eur J Med Chem, 2010)

Target: D(2) dopamine receptor (Homo sapiens, UniProt P14416)
Assay: Antagonist activity at dopamine D2 receptor
Type: functional

D(2) dopamine receptor, sequence (P14416 whole entry): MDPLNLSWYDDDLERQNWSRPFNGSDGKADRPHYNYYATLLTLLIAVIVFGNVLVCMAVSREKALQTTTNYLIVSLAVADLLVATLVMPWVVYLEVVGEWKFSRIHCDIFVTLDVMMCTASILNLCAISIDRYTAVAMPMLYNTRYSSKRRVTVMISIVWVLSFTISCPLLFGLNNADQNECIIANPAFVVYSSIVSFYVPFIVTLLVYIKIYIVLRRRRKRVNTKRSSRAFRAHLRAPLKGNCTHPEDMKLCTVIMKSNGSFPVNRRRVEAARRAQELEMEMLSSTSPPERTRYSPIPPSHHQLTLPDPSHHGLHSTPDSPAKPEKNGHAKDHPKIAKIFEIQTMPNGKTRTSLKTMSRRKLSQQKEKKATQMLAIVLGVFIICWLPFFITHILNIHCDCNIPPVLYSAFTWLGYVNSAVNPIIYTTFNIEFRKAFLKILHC

Structure (SMILES) | IC50 [µM]
CCN1CCC[C@H]1CNC(=O)c1cc(Cl)ccc1OC | 0.257
CCN1CCC[C@H]1CNC(=O)c1cc(Br)ccc1OC | 0.0457
CCN1CCC[C@H]1CNC(=O)c1cccc(O)c1OC | 0.316
CCN1CCC[C@H]1CNC(=O)c1c(OC)c(O)cc(I)c1OC | 0.000288
CCN1CCC[C@H]1CNC(=O)c1c(OC)ccc(SC)c1OC | 0.0011
CCc1cc(O)c(OC)c(C(=O)NC[C@@H]2CCCN2CC)c1OC | 0.00129
CCCCc1ccc(OC)c(C(=O)NC[C@@H]2CCCN2CC)c1OC | 0.00269
CCCc1ccc(OC)c(C(=O)NC[C@@H]2CCCN2CC)c1 | 0.0676
CCN1CCC[C@H]1CNC(=O)c1c(OC)ccc(Cl)c1Cl | 0.02
CCN1CCC[C@H]1CNC(=O)c1c(OC)ccc(Cl)c1Br | 0.00562
CCc1ccc(OC)c(C(=O)NC[C@@H]2CCCN2CC)c1Cl | 0.00417
CCN1CCC[C@H]1CNC(=O)c1c(Cl)ccc(O)c1OC | 0.0646
CCN1CCC[C@H]1CNC(=O)c1c(OC)ccc(O)c1OC | 0.00871
CCN1CCC[C@H]1CNC(=O)c1cc(F)cc(O)c1OC | 0.363
CCN1CCC[C@H]1CNC(=O)c1cc(Cl)cc(O)c1OC | 0.0389
CCN1CCC[C@H]1CNC(=O)c1c(Br)c(Cl)cc(O)c1OC | 0.0575
CCc1c(Cl)cc(O)c(OC)c1C(=O)NC[C@@H]1CCCN1CC | 0.012
CCN1CCC[C@H]1CNC(=O)c1cc(Br)cc(O)c1OC | 0.00832
CCN1CCC[C@H]1CNC(=O)c1c(Cl)c(Br)cc(O)c1OC | 0.017

Structure (SMILES) | IC50 [µM]
CCN1CCC[C@H]1CNC(=O)c1c(Br)c(Br)cc(O)c1OC | 0.0257
CCN1CCC[C@H]1CNC(=O)c1c(OC)c(O)cc(Br)c1OC | 0.00141
CCN1CCC[C@H]1CNC(=O)c1c(OC)c(O)cc(Br)c1[N+](=O)[O-] | 0.186
CCN1CCC[C@H]1CNC(=O)c1cc(I)cc(O)c1OC | 0.00302
CCN1CCC[C@H]1CNC(=O)c1c(Cl)c(C)cc(O)c1OC | 0.0257
CCN1CCC[C@H]1CNC(=O)c1c(C)c(C)cc(O)c1OC | 0.00776
CCc1cc(O)c(OC)c(C(=O)NC[C@@H]2CCCN2CC)c1 | 0.00288
CCc1cc(O)c(OC)c(C(=O)NC[C@@H]2CCCN2CC)c1F | 0.00151
CCc1cc(O)c(OC)c(C(=O)NC[C@@H]2CCCN2CC)c1Cl | 0.000912
CCc1cc(O)c(OC)c(C(=O)NC[C@@H]2CCCN2CC)c1Br | 0.00229
CCCc1cc(O)c(OC)c(C(=O)NC[C@@H]2CCCN2CC)c1 | 0.000501
CCN1CCC[C@H]1CNC(=O)c1cc(OC)cc(O)c1OC | 0.204
CCN1CCC[C@H]1CNC(=O)c1c(Br)c(OC)cc(O)c1OC | 0.0676
CCCc1cc(O)c(OC)c(C(=O)NC[C@@H]2CCCN2CC)c1Cl | 0.00324
CCN1CCC[C@H]1CNC(=O)c1c(Br)c(C)cc(O)c1OC | 0.0055
CCN1CCC[C@H]1CNC(=O)c1c(OC)ccc(C)c1OC | 0.00525
CCc1c(Br)cc(O)c(OC)c1C(=O)NC[C@@H]1CCCN1CC | 0.017
CCc1cc(O)c(OC)c(C(=O)NC[C@@H]2CCCN2CC)c1CC | 0.00178
CCc1ccc(OC)c(C(=O)NC[C@@H]2CCCN2CC)c1 | 0.0398

Structure (SMILES) | IC50 [µM]
CCN1CCC[C@H]1CNC(=O)c1c(Cl)c(Cl)cc(O)c1OC | 0.0324
CCN1CCC[C@H]1CNC(=O)c1c(Cl)c(OC)cc(O)c1OC | 0.0708
CCN1CCC[C@H]1CNC(=O)c1c(Br)ccc(O)c1OC | 0.0562
CCN1CCC[C@H]1CNC(=O)c1c(C)c(Cl)cc(O)c1OC | 0.011
CCN1CCC[C@H]1CNC(=O)c1c(OC)c(O)cc(Cl)c1OC | 0.0017
CCN1CCC[C@H]1CNC(=O)c1c(OC)ccc(Br)c1Br | 0.00794
CCc1ccc(OC)c(C(=O)NC[C@@H]2CCCN2CC)c1Br | 0.011
CCN1CCC[C@H]1CNC(=O)c1c(F)c(Br)cc(O)c1OC | 0.00708
CCN1CCC[C@H]1CNC(=O)c1c(C)c(Br)cc(O)c1OC | 0.011
CCN1CCC[C@H]1CNC(=O)c1cc(C)cc(O)c1OC | 0.0191
CCCc1cc(O)c(OC)c(C(=O)NC[C@@H]2CCCN2CC)c1C | 0.00501
CCCc1c(Cl)cc(O)c(OC)c1C(=O)NC[C@@H]1CCCN1CC | 0.11
CCc1ccc(O)c(OC)c1C(=O)NC[C@@H]1CCCN1CC | 0.123
CCCc1c(C)cc(O)c(OC)c1C(=O)NC[C@@H]1CCCN1CC | 0.141
CCN1CCC[C@H]1CNC(=O)c1cc([N+](=O)[O-])cc(O)c1OC | 3.02
CCN1CCC[C@H]1CNC(=O)c1c(OC)ccc(I)c1OC | 0.000676
CCN1CCC[C@H]1CNC(=O)c1c(OC)cccc1OC | 0.0525
CCc1ccc(OC)c(C(=O)NC[C@@H]2CCCN2CC)c1OC | 0.00129
CCN1CCC[C@H]1CNC(=O)c1c(OC)ccc(Br)c1O | 0.01
